# According to patent US20110224226A1, “COMPOSITIONS AND METHODS FOR INCREASING BLOOD PLATELET LEVELS IN HUMANS” (AKARX, Inc., priority 2006, published 2011):
# Legend:
# [1] = system: human cord blood (CB) CD34^+ cells; experiment: differentiation of human cord blood CD34+ cells to megakaryocytes; format: cell-based; details: concentration-dependent; maximum effect similar to that of rhTPO
# [2] = system: human hematopoietic progenitor cells; experiment: differentiation of hematopoietic progenitor cells other than megakaryocytic lineage; format: cell-based
# [3] = species specificity of activity; set-up: species or system chimpanzee and man
# [4] = system: platelet function; experiment: platelet function (platelet aggregation and activation); format: cell-based, human
# [5] = pharmacokinetics after intravenous and oral administration in mice; format: in vivo; details: mouse, plasma
# Excerpt: (§1) After a single intravenous administration of the drug of Formula I as the monomaleate salt to mice and dogs, plasma concentrations of Formula I decreased in a biphasic manner.
# [6] = pharmacokinetics after intravenous and oral administration in dogs; format: in vivo; details: dog, plasma
# Excerpt: as §1
# [7] = in-vitro plasma protein binding, rats; format: in vitro ADME; details: rat, 0.05 to 50 μg/mL
# Description: (§2) The in-vitro plasma protein binding of the drug of Formula I was independent of concentration over the concentration range of 0.05 to 50 μg/mL and was 87.2-89.1% in mice; 87.6-89.2% in rats; 88.3-92.0% in rabbits; […] in dogs; 97.0-97.6% in monkeys; and 96.3-96.6% in humans.
# [8] = in-vitro plasma protein binding, monkeys; format: in vitro ADME; details: monkey, 0.05 to 50 μg/mL
# Description: as §2
# [9] = in-vitro plasma protein binding, humans; format: in vitro ADME; details: human, 0.05 to 50 μg/mL
# Description: as §2
# [10] = system: liver microsomal enzymes; experiment: metabolism by mouse liver microsomal enzymes; format: in vitro ADME
# [11] = target: 3A4 (Homo sapiens, UniProt P08684); experiment: inhibition of human liver cytochrome P450 3A4; format: in vitro ADME; details: human liver cytochrome P450 isoenzyme
# [12] = 4-week repeat dose toxicity in rats; format: in vivo, rat
# [13] = 4-week repeat dose toxicity in the dog; format: in vivo
# [14] = QT interval in cynomolgus monkeys; format: in vivo; details: 100 and 1000 mg/kg, appears related to decreased heart rate from acclimation, not drug related
# [15] = system: platelet count; experiment: Example 1 single dose study: pharmacodynamics (platelet count); format: in vivo, human
# Description: A single-center, randomized, double-blind, dose-rising study to determine the safety, pharmacokinetics, and pharmacodynamics of single doses of 1-(3-chloro-5-{[4-(4-chlorothiophen-2-yl)-5-(4-cyclohexylpiperazin-1-yl)thiazol-2-yl]carbamoyl} pyridin-2-yl)piperadine-4-carboxylic acid (Formula I) in normal healthy volunteers was performed. The starting dose of the drug of Formula I was 1 mg (expressed as free base). Successive dose cohorts received 3, 10, 20, 50, 75 and 100 mg. The drug substance in the form of the monomaleate salt was suspended in Ora-Plus® (purified water, microcrystalline cellulose, sodium carboxymethylcellulose, xanthan gum, citric acid, sodium phosphate, simethicone, potassium sorbate and methylparaben), a commercially available oral suspending vehicle manufactured by Paddock Laboratories, Inc. Minneapolis, Minn. The Ora-Plus® was diluted with purified water, USP in a 1:1 suspension before being used to suspend the drug substance powder in preparation for oral administration. Prior to administration, 30 mL of the Ora-Plus®/water vehicle was added to each bottle, shaken and then consumed by the subject for each of the 3, 10, 50 and 75 mg dose cohorts. This was followed by an additional 30 mL of vehicle that was added to the bottle as a wash solution, shaken and then consumed by the subject. For the 20 mg and 100 mg dose cohorts, 60 mL of the Ora-Plus®/water vehicle was added to two (2) separate bottles containing the appropriate dose of drug (30 mL each bottle), shaken then consumed by the subjects. This was followed by an additional 60 mL of vehicle that was added as 30 ml to each bottle as a wash solution, shaken and then consumed by the subject.
# A minimum of 9 subjects (male and female healthy volunteers) were enrolled in each cohort. The active group within each cohort included male and female volunteers. Three subjects per cohort received placebo. Each successive dose cohort was treated no sooner than 10 days after the previous group had received the study drug. […]
# [16] = Example 2 multi-dose study: safety; format: in vivo, human; details: up to 20 mg daily for ten (10) to fourteen (14) days, healthy volunteers
# Description: A double-blind, placebo-controlled, dose rising study was performed in healthy male and female volunteers. Each dose cohort received either placebo or active treatment as an oral suspension once daily for fourteen (14) consecutive days. The dose of study drug was prepared and administered as described in Example 1 above. The doses administered in this multiple dose study were based on the safety and tolerability assessment of the doses administered in Example 1.
# Based on the results of Example 1, the starting dose was 3 mg. Based on the safety and tolerability results from Example 1, the dose was scheduled to be escalated to 10, 20, 50 and 100 mg per day for 14 consecutive days. Successive dose cohorts were not treated until the previous cohort completed 14 days of treatment and the safety follow-up visit on Day 21.
# [17] = oral administration, read-out: absolute bioavailability
# 3A4, sequence (P08684 whole entry): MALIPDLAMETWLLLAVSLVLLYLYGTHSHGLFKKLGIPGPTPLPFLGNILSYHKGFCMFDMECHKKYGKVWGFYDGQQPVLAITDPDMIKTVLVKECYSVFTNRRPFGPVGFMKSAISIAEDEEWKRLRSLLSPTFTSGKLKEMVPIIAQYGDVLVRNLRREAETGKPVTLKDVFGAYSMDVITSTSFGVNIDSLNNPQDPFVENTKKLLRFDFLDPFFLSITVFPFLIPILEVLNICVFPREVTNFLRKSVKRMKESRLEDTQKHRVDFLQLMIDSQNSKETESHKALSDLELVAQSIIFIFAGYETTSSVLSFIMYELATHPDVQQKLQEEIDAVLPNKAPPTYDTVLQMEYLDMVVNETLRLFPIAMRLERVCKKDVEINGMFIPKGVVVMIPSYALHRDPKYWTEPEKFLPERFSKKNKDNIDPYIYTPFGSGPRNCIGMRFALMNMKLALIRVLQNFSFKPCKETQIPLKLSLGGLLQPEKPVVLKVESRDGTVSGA
smiles,measurement,setting,value
"O=C(Nc1nc(-c2cc(Cl)cs2)c(N2CCN(C3CCCCC3)CC2)s1)c1cnc(N2CCC(C(=O)O)CC2)c(Cl)c1 [Formula I, 1-(3-chloro-5-{[4-(4-chlorothiophen-2-yl)-5-(4-cyclohexylpiperazin-1-yl)thiazol-2-yl]carbamoyl}pyridin-2-yl)piperadine-4-carboxylic acid]",differentiation of human cord blood CD34+ cells to human megakaryocytes,[1],promotes the differentiation
same,differentiation of human hematopoietic progenitor cells other than those of megakaryocytic lineage,[2],did not promote the differentiation
same,species specificity,[3],activity only in the chimpanzee and man
same,platelet function as measured by platelet aggregation and activation,[4],does not appear to effect platelet function
same,half-life,"[5]; mice, single intravenous administration as the monomaleate salt, read-out: terminal elimination half-life (t1/2) (converted)",2.7 h
same,bioavailability,[5]; [17],91%
same,half-life,"[6]; dogs, single intravenous administration as the monomaleate salt, read-out: terminal elimination half-life (t1/2) (converted)",2.7 h
same,bioavailability,[6]; [17],52%
same,fraction unbound,[7],0.108 to 0.124
same,fraction unbound,[8],0.024 to 0.03
same,fraction unbound,[9],0.034 to 0.037
same,metabolism by liver microsomal enzymes,[10],does not appear to be metabolized
same,inhibition of CYP3A4,[11],did not inhibit
same,reversibility of gastric mucosa changes,"[12]; rat, on drug withdrawal",resolved on drug withdrawal
same,CK and aldolase levels,"[12]; rat, repeat dosing 4 weeks",Elevated levels of CK and aldolase
same,"muscle degeneration/necrosis in femoral, lower thigh or multifides muscles","[12]; rat, repeat dosing 4 weeks",1 or 2 rats per dose group
same,changes in the gastric mucosa,"[12]; rats, repeat dosing 4 weeks, 3, 10, 30, 100 mg/kg/day",degeneration of chief cells and parietal cells
same,muscle lesions,[13]; any dose,No muscle lesions were observed
same,renal findings at the end of the recovery period,"[13]; high dose animals (100, 300 mg/kg/day), all other renal lesions resolved",regeneration of renal tubular epithelial persisted in the majority of the high dose animals
same,microscopic changes in the cortex of the kidney,"[13]; monomaleate salt, 10, 30, 100, 300 mg/kg/day for 4 weeks",epithelial cell regeneration of proximal tubules and interstitial subacute inflammation
same,QT interval,[14],prolongation of QT interval was reported
same,dose at which the PD limit (5 subjects with >50% increase in platelet count) was reached,[15]; single dose,100 mg
same,dose-concentration-response relationship for changes in platelet count,"[15]; single dose, increasing drug concentrations and exposure",linear increases in platelet counts over baseline
same,single dose after which statistically significant increases in platelet counts were evident,"[15]; single oral dose, healthy volunteers",≥ 10 mg
same,tolerability (drug-related clinical or laboratory adverse experiences),[16],well tolerated
